Source: patent US9248117B2, “Substituted N,N-dihaloamines as antimicrobials” (priority 2010, dated 2016)
Converted amounts (≈) assume the structure as drawn.

What was measured:
E. coli 25922 = assay: MBC/MFC against E. coli 25922; assay type: cell-based; conditions: Escherichia coli
S. aureus 29213 = assay: MBC/MFC against S. aureus 29213; assay type: cell-based; conditions: Staphylococcus aureus
C. albicans 10231 = assay: MBC/MFC against C. albicans 10231; assay type: cell-based; conditions: Candida albicans
L929 cells = assay: CT50 cytotoxicity in L929 cells; conditions: pH 7 phosphate

SMILES	MBC (E. coli 25922; pH 4 acetate, Table 4)	MBC (E. coli 25922; pH 7 phosphate, Table 4)	MBC (S. aureus 29213; pH 4 acetate, Table 4)	MBC (S. aureus 29213; pH 7 phosphate, Table 4)	MFC (C. albicans 10231; pH 4 acetate, Table 4)	MFC (C. albicans 10231; pH 7 phosphate, Table 4)	CT50 L929 cells (L929 cells; Table 4)	MBC (E. coli 25922; pH 4 acetate, Table 3)	MBC (E. coli 25922; pH 7 phosphate, Table 3)	MBC (S. aureus 29213; pH 4 acetate, Table 3)	MBC (S. aureus 29213; pH 7 phosphate, Table 3)	MFC (C. albicans 10231; pH 4 acetate, Table 3)	MFC (C. albicans 10231; pH 7 phosphate, Table 3)	CT50 L929 cells (L929 cells; Table 3)
CC1(C)CN(CCO)C(=O)C(C)(C)N1Cl [Compound 39-108, 4-chloro-1-(2-hydroxyethyl)-3,3,5,5-tetramethylpiperazin-2-one]	1 µg/mL (≈ 4.26 µM)	32 µg/mL (≈ 136 µM)	2 µg/mL (≈ 8.52 µM)	128 µg/mL (≈ 545 µM)	8 µg/mL (≈ 34.1 µM)	64 µg/mL (≈ 273 µM)	0.1 mM							
COCCOCCOCCOCCOCCOCCOCCOCCOCCOCCOCCOCCOCCOCCN1C(=O)C(C)(C)N(Cl)C1(C)C [Compound 39-116, 1-chloro-2,2,5,5-tetramethyl-3-(2,5,8,11,14,17,20,23,26,29,32,35,38,41-tetradecaoxatritetracontan-43-yl)imidazolidin-4-one]	16 µg/mL (≈ 19.8 µM)	512 µg/mL (≈ 634 µM)	16 µg/mL (≈ 19.8 µM)	1020 µg/mL (≈ 1270 µM)	128 µg/mL (≈ 159 µM)	> 2050 µg/mL	4.1 mM							
CCCCOCC[N+](C)(C)CCC(C)(C)N(Cl)Cl.[Cl-] [Compound 38-133, N-(2-butoxyethyl)-3-(dichloroamino)-N,N,3-trimethylbutan-1-aminium chloride]								8 µg/mL	128 µg/mL	8 µg/mL	128 µg/mL	64 µg/mL	1020 µg/mL	0.26 mM
CC(C)(CC[N+](C)(C)CCCO)N(Cl)Cl [Compound 38-151, 3-(dichloroamino)-N-(3-hydroxypropyl)-N,N,3-trimethylbutan-1-aminium]								4 µg/mL	1020 µg/mL	4 µg/mL	> 2050 µg/mL	64 µg/mL	> 1020 µg/mL	0.12 mM
CCOCCOCCOCCS(=O)(=O)CCC(C)(C)N(Cl)Cl [Compound 38-89, N,N-dichloro-4-(2-(2-(2-ethoxyethoxy)ethoxy)ethylsulfonyl)-2-methylbutan-2-amine]								8 µg/mL (≈ 21 µM)	256 µg/mL (≈ 673 µM)	8 µg/mL (≈ 21 µM)	128 µg/mL (≈ 337 µM)	4 µg/mL (≈ 10.5 µM)	512 µg/mL (≈ 1350 µM)	0.06 mM
CC(=O)OCC(O)CS(=O)(=O)CCC(C)(C)N(Cl)Cl (stereo not shown) [Compound 38-49, 3-(3-(Dichloroamino)-3-methylbutylsulfonyl)-2-hydroxypropyl acetate]								2 µg/mL	64 µg/mL	4 µg/mL	32 µg/mL	16 µg/mL	> 512 µg/mL	
CO[C@H]1O[C@H](CS(=O)(=O)CCC(C)(C)N(Cl)Cl)[C@@H](O)[C@H](O)[C@H]1O [Compound 38-141, (2S,3S,4S,5R,6S)-2-(((3-(dichloroamino)-3-methylbutyl)sulfonyl)methyl)-6-methoxytetrahydro-2H-pyran-3,4,5-triol]								8 µg/mL (≈ 20.2 µM)	512 µg/mL (≈ 1290 µM)	8 µg/mL (≈ 20.2 µM)	256 µg/mL (≈ 646 µM)	16 µg/mL (≈ 40.4 µM)	> 1020 µg/mL	
COCCOCCN1C(=O)C(C)(C)N(Cl)C1(C)C [Compound 39-112, 1-chloro-3-(2-(2-methoxyethoxy)ethyl)-2,2,5,5-tetramethylimidazolidin-4-one]	4 µg/mL (≈ 14.3 µM)	128 µg/mL (≈ 459 µM)	8 µg/mL (≈ 28.7 µM)	128 µg/mL (≈ 459 µM)	8 µg/mL (≈ 28.7 µM)	1020 µg/mL (≈ 3670 µM)	0.16 mM							
CC(C)(CCS(=O)(=O)CC(O)C(O)CO)N(Cl)Cl (stereo not shown) [Compound 38-29, 4-(3-(Dichloroamino)-3-methylbutylsulfonyl)butane-1,2,3-triol]								2 µg/mL (≈ 6.17 µM)	128 µg/mL (≈ 395 µM)	1 µg/mL (≈ 3.08 µM)	32 µg/mL (≈ 98.7 µM)	256 µg/mL (≈ 790 µM)	> 1020 µg/mL	
COCC[N+](C)(C)CCC(C)(C)N(Cl)Cl.[Cl-] [Compound 38-43, 3-(dichloroamino)-N-(2-methoxyethyl)-N,N,3-trimethylbutan-1-aminium chloride]								2 µg/mL	1020 µg/mL	1 µg/mL	512 µg/mL	32 µg/mL	> 2050 µg/mL	1.2 mM
CC(C)(CCS(=O)(=O)C(CO)C(O)CO)N(Cl)Cl (stereo not shown) [Compound 38-145, 3-(3-(Dichloroamino)-3-methylbutylsulfonyl)butane-1,2,4-triol]								2 µg/mL (≈ 6.17 µM)	64 µg/mL (≈ 197 µM)	2 µg/mL (≈ 6.17 µM)	16 µg/mL (≈ 49.3 µM)	64 µg/mL (≈ 197 µM)	1020 µg/mL (≈ 3160 µM)	
CC(=O)OCCOCCOCCS(=O)(=O)CCC(C)(C)N(Cl)Cl [Compound 38-87, 2-(2-(2-(3-(Dichloroamino)-3-methylbutylsulfonyl)ethoxy)ethoxy)ethyl acetate]								4 µg/mL	128 µg/mL	4 µg/mL	128 µg/mL	32 µg/mL	512 µg/mL	
CC(C)(C)OCCOCCOCCS(=O)(=O)CCC(C)(C)N(Cl)Cl [Compound 38-91, N,N-dichloro-4-(2-(2-(2-tert-butoxyethoxy)ethoxy)ethylsulfonyl)-2-methylbutan-2-amine]								8 µg/mL (≈ 19.6 µM)	> 256 µg/mL	4 µg/mL (≈ 9.79 µM)	128 µg/mL (≈ 313 µM)	16 µg/mL (≈ 39.2 µM)	128 µg/mL (≈ 313 µM)	
